Results on 5 compounds are retold here after US20220106547A1, “COMPOSITIONS AND METHODS OF USING PARTIAL GEL LAYERS IN A MICROFLUIDIC DEVICE” (Emulate, Inc., priority 2019, published 2022).

In series [1] the test system is lung cells. In words: Viability/differentiation biomarker scoring of airway chip culture conditions. The class given is cell-based. As to conditions: airway S1 chip culture. From the text: In one embodiment, the present invention contemplates a method comprising scoring at least one cell biomarker and determining a viable and differentiated cell. For example, specific quantitative scores have been assigned to a set of cell biomarkers for viability and differentiation during chip cell culture maturation includes, but is not limited to, cell death (1), ciliation (2) cell attachment (3) cell movement/shape (4), cell overgrowth (5), cell invasion (6). See, FIG. 14.
As depicted, the score value increases as the viability/differentiation relevance of the cell biomarker decreases. In one embodiment, the cell death biomarker score value increases in proportion to increased cell death. In one embodiment, the ciliation biomarker score value increases in proportion to deceased ciliation. In one embodiment, the cell attachment biomarker score value increases in proportion to decreased cell attachment. In one embodiment, the cell movement/shape biomarker score value increases with decreased cell movement/shape. In one embodiment, the cell overgrowth biomarker score value increases with increased cell overgrowth. […]
Each coating can be seen to result in different score values that are independent of location in the cell culture device (e.g., Zoe). […] It is known that retinoic acid (RA) is readily absorbed by most microchip substrates. […]

In series [2] the test system is primary human hepatocytes. The series can be described thus: Lipid droplet accumulation (AdipoRed) in ALD Liver-Chip. As to conditions: ethanol 0.08% or 0.16%, oleic acid 1 μg/ml, up to 48 hrs.
Series [3] has as its system human neutrophils. The series can be described thus: Neutrophil recruitment/adhesion in HRV infected Airway Chips. The class given is cell-based. The source says:
In one embodiment, the present invention contemplates a method for reducing neutrophil adhesion using an IL-13 inhibitor. In one embodiment, the IL-13 inhibitor is a CXCR2 antagonist. In one embodiment, the IL-13 inhibitor is MK-7123. In one embodiment, the neutrophil adhesion is reduced by approximately seventy-five (75) percent (%). In one embodiment, the IL-13 recruits neutrophils by approximately two-fold.
This response was accompanied by a reduction in neutrophil velocity. FIG. 95A, 95B. Also observed was a significant twofold increase in neutrophil recruited between HRV infected chips and infected chips in presence of IL-13 (953 vs 1999; p<0.001). FIG. 95A. […] FIG. 95C.

Series [4] has as its system primary human hepatocytes. As to conditions: 0.08% and 0.16% pooled vs vehicle.
The subject of series [5] is bile canaliculi network of primary human hepatocytes. The series can be described thus: Bile canaliculi (BC) network integrity, MRP-2 staining, Liver-Chip. The class given is cell-based. As to conditions: 0.08% ethanol with or without LPS, 48 h. From the text:
A Tri-culture configuration includes primary hepatocytes cultured in the upper channel and primary liver sinusoidal endothelial cells (LSECs) cultured on the opposite side of the membrane, i.e. in the lower channel, along with Kupffer cells. As this design recapitulates elements of the hepatic sinusoid microenvironment ref^17, we were interested in recreating the bile canaliculi (BC) network that is established between neighboring hepatocytes. […] The latter together with the lack of a reproducible, quantitative manner to assess the integrity of the BC network have precluded the use of this clinical endpoint in preclinical studies. […] Based on these findings, we assessed the impact of various ECM scaffold compositions and patterning methods on BC integrity by using quantitative metrics to describe the MRP-2 stained BC network topology (FIG. 82A-E: Table 8. […]
To assess the effect of each ECM protocol on BC network formation, we quantified the MRP-2 stained BC network topology (see method sections on IF staining and Image analysis for details). […]
For measuring bile canaliculi network properties, MRP-2 stained chips were imaged at 40× using a confocal point-scanning microscope (Zeiss LSM880, Airyscan). […] In each field of view, a z-stack was recorded and combined using maximal intensity projection in order to fully capture the bile canaliculi network. […]

In series [6] the test system is primary human hepatocytes. The series can be described thus: Oxidative stress (MitoSox ROS events) in Liver-Chip hepatocytes. The class given is cell-based. As to conditions: 48 h exposure. The source says: Having shown that at least one embodiment of a Liver-Chip responds to alcohol, we explored the possibility of modeling the progression of ALD, as per the two- or one-hit and second-hit hypothesis, such that simple steatosis induced by alcohol requires a second hit (insult) for progression of ALD to ASH ref^69. Ethanol consumption in humans compromises the intestinal barrier function resulting in increased permeability to intestinal endotoxins, e.g. bacterial lipopolysaccharide (LPS), from the gut to the liver via the portal vein ref^18. Such a permeabalized leaky barrier is considered one of the “second hits” in the progression of ALD to inflammation (ASH) ref^70. Therefore, we tested whether exposure to ethanol and LPS together would worsen the Liver-Chip pathology.
Clinical data have shown the potential of the steatotic liver to repair the steatotic injury following timely abstinence from alcohol or with diet modifications ref^19. Thus, we assessed the responses of the “alcoholic” Liver-Chip to withdrawal from ethanol or ethanol+LPS. Treatment of the Liver-Chip for 48 h with ethanol or ethanol+LPS as above, was followed by a 5 day-long treatment-free “recovery” period. […]
Live cell staining. […] The stained chips were imaged using either an Olympus fluorescence microscope (IX83) or Zeiss confocal microscope (LSM880), and were de-blurred with Olympus cellSens software. […]

Series [7] deals with primary human hepatocytes. As to conditions: 48 hrs.
Text: To this purpose we used fluorometric assays for biochemical markers of liver function, including albumin, cholesterol, glucose, and glycogen (FIG. 77A-B).
Liver-Chip culture. Liver-Chip culture was established according to our previously published protocol^74. […] Extracellular matrix sandwiching and composition in the Liver-Chip was optimized to support BC integrity (FIG. 81A-B and method sections below). On the other side of the membrane (the lower chamber of the chip) human primary LSECs (3 million cells/mL) and KCs (0.5 million cells/mL) were seeded to mimic the hepatic sinusoid architecture (FIG. 76A). The two cell compartments were perfused independently, and flow rates were optimized to enable optimal survival and maturation of the different cell types ref^74. In the Quad Liver-Chip experiments, primary human hepatic stellate cells (50,000 cells/mL) were mixed within the collagen coating (FibriCol at 0.5 mg/ml concentration) and add to activated chips and let incubate overnight before hepatocytes seeding on the top of the collagen and HSC mix. The seeded hepatocytes were overlaid with ECM as described in FIG. 81A-B and below, and maintained in William's E Medium (WEM) containing Glutamax (Gibco), ITS+ (Corning), dexamethasone (Sigma-Aldrich), ascorbic acid (Sigma-Aldrich), fetal bovine serum (Sigma-Aldrich), and penicillin/streptomycin (Sigma-Aldrich), and incubated at 37° C., 5% CO2. The vascular channel of the Liver-Chip was maintained with human endothelial media (Emulate, Inc.). Two days after seeding, the Liver-Chips were connected to the Human Emulation System™ (Emulate, Inc.) and both chip channels were perfused at 30 μL/h to provide a continuous supply of fresh medium for the duration of the experiments. At day 5 in culture, the basal medium was modified to DMEM low glucose (1 g/L) supplemented with non-essential amino acids solution (NEAA, 1:200 dilution), glutaMAX (Thermo Fisher) ascorbic acid (Sigma-Aldrich) and penicillin/streptomycin (Sigma-Aldrich). Moreover, ITS+ premix (Corning) was replaced by ITS (GIBCO, 1:500 dilution) in order to achieve a more physiological relevant concentration of insulin, while the FBS supplement was removed. Treatment. […] The Liver-Chip was maintained for 48h in treatment medium and either assayed or allowed to recover for 5 days in basal medium. Optimization of Liver-Chip ECM for BC integrity. We iteratively modified the original ECM coating protocol^74 in order to improve BC formation. Five different combinations of ECM composition and deposition strategy were tested (FIG. 82B), where ECM-A denoted the original protocol. Briefly, for ECM-A, top and bottom channels were coated by incubating with 100 μg/mL rat tail collagen-I (Corning) and 25 μ/mL fibronectin (Gibco) overnight at 37° C. […]
In series [8] the test system is mucociliary bronchiolar epithelium (hAECs). The series can be described thus: Effect of IL-13 on goblet cells and cilia beating frequency in Airway Chip. The class given is cell-based, human. As to conditions: IL-13 100 ng/mL, 7 days. The method, then: Cilia beating frequency (CBF) was measured by applying Fourier spectral analysis to high-speed video recordings of the ciliated surfaces. Using an inverted phase contrast microscope, the ciliated surfaces were recorded at 190-200 frames per second and at a resolution of 512 by 512 pixels, which corresponded to a field of view of 166 by 166 μm^2 (0.32 μm per pixel). Cilia beating was recorded at multiple randomly chosen fields of view (FOV) for each chip.
A first step of video processing was to identify regions of ciliary beating by computing a normalized standard deviation of an intensity value for each pixel across all frames. […] FIG. 104A-B.
In a further step, areas with ciliary motion were thresholded and the movie field of view was divided into 289 windows (ca. 10×10 μm^2 in size). For each window, a random set comprising 70% of all pixels with detected motion was further analyzed to detect the dominant beat frequency. For each sampled pixel, ciliary beat frequency was determined from a time-dependent fluctuation of pixel brightness reflecting the periodicities of the ciliary movement. A bandwidth filter (e.g., approximately 1 to 30 Hz) was applied to each pixel signal to remove noise. […] Thus, for each FOV, the number of measured CBFs was determined by the number of windows with usable signals (e.g., 289 windows). […]

Turning to “Bovine Serum Albumin (BSA): membrane coating layer of bovine serum albumin”, in series [1], the “cell viability and differentiation (scoring / morphological assessment)” value is “found to support the most viable and differentiated cells”.

Take `CCCCCCCC/C=C\CCCCCCCC(=O)O` [oleic acid, reference compound]: in series [2], the “steatosis (hepatic lipid accumulation)” value is “steatosis was induced”.

As to `CC[C@@H](Nc1c(Nc2cccc(C(=O)N(C)C)c2O)c(=O)c1=O)c1ccc(C)o1` [MK-7123, reference compound], the “reduction of neutrophil adhesion” value in series [3] (stated as embodiment, MK-7123 10 μM in FIG. 95) was about 75%.

Take `CCO` [ethanol]: in series [4], the “downregulated DE genes” value was 36 and the “upregulated DE genes” value stood at 87. The “differentially expressed (DE) genes” value in series [4] (adj. p<0.05, |log2FC|>1) worked out at 123. Besides, the “dilated BC (cholestatic) areas” value in series [5] was “areas of markedly dilated BCs”. The “ROS events per nuclei” value in series [6] is “dose-dependent increase in ROS events”. In addition, the “glycogen storage in cell lysates” value in series [7] (0.08% ethanol) is given as “trend for increase”. Further, the albumin release result in series [7] is listed as “not affected”. Also, the cholesterol levels entry in series [7] (human-relevant BACs, effluent and cell lysates) is listed as “significant increase in cholesterol levels”. The glucose release entry in series [7] (except toxic concentrations above 0.32%) was “no changes were detected”. For the same compound, the “steatosis (hepatic lipid accumulation)” value in series [2] is reported as “steatosis was induced”.

Take IL-13: Th2 cytokine IL-13: in series [8], the “reduction in cilia beating frequency” value turned out to be 14.4%. In addition, the “goblet cells, total area” value in series [8] (16.5% without IL-13) was 50.3%. In addition, the neutrophil recruited in series [3] (HRV infected chips in presence of IL-13, 953 in HRV infected chips alone) is 1999.
